Drawing on US10703764B2, “Benzopiperazine compositions as BET bromodomain inhibitors” (FORMA Therapeutics, Inc., priority 2013, dated 2020), this text covers IC50 for 35 compounds.

Read-outs that look alike come from different tables or passages of the source. A value given as a limit tells only on which side of the number the result lay.

One test addresses T1, BRD4 BD1 (Homo sapiens, UniProt O60885).
T1 construct: made in house
The test can be described thus: AlphaScreen binding assay, BRD4 Bromodomain 1. A digest of the protocol:
(§1)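 An AlphaScreen competition format was used with His-BRD4 BD1 or BD2 and biotin-H4 K5/8/12/16-acetyl peptide, each at matched final levels of 50 nM (BD1) or 100 nM (BD2). Incubation in HEPES/NaCl buffer with 0.1% BSA and 0.01% Triton X-100 ran ≥1 h before IC50 determination.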

The target in the next test is T2, BRD4 BD2 (Homo sapiens, UniProt O60885).
T2 construct: made in house
The test can be described thus: AlphaScreen binding assay, BRD4 Bromodomain 2. The method in brief: as §1
(Bead proximity is the source of the signal in Alpha formats.)

In another test the test system is MV4-11 cells. The test can be described thus: Oncology cell growth assay (3-day proliferation, CellTiter-Glo). Type of test: cell-based. The conditions noted are these: Homo sapiens, AML cell line MV4-11, 72 hours, compounds grouped by IC50 range, read-out: MV4-11 IC50 (inhibition of proliferation, gIC50). A digest of the protocol:
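72 h, 37° C, 5% CO2; MV4-11, 3000 cells/well, RPMI 1640 + 10% FBS. Compound final 10, 3.3, 1.1, 0.37, 0.12, 0.041, 0.013, 0.0045 μM. Readout CellTiter-Glo luminescence; gIC50 by 4-parameter logistic fit, normalised to DMSO and no-cell background.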
Background: Cellular ATP, detected with luciferase, serves as a proxy for viable cell number.

As to `CC(=O)N1c2ccc(-c3ccc(NS(C)(=O)=O)cc3)cc2N(C(=O)Oc2ccc(F)cc2F)C[C@@H]1C` [Example I-1013], the IC50 fell in the range of 0.1 to 1 µM at BRD4 BD1; 0.05 to 0.5 µM on BRD4 BD2; 0.1 to 0.5 µM in the test on MV4-11 cells (MV4-11, 72 h).
The corresponding values for `CC(=O)N1c2ccc(-c3cc(Cl)cc(S(C)(=O)=O)c3)cc2N(C(=O)OC2CCOCC2)C[C@@H]1C` [Example I-1248] are 0.1 to 1 µM, greater than 0.5 µM and 0.1 to 0.5 µM.
The corresponding values for `CC(=O)N1c2ccc(-c3cnn(C4CC4)c3)cc2N(C(=O)OC2CCCC2)C[C@@H]1C` [Example I-23, (S)-cyclopentyl 4-acetyl-7-(1-cyclopropyl-1H-pyrazol-4-yl)-3-methyl-3,4-dihydroquinoxaline-1(2H)-carboxylate] are less than 0.1 µM, 0.05 to 0.5 µM and less than 0.1 µM.
For the compound `CC(=O)N1c2ccc(-c3cnn(C4COC4)c3)cc2N(C(=O)OCC2(F)COC2)C[C@@H]1C` [Example I-66, (S)-(3-fluorooxetan-3-yl)methyl 4-acetyl-3-methyl-7-(1-(oxetan-3-yl)-1H-pyrazol-4-yl)-3,4-dihydroquinoxaline-1(2H)-carboxylate], the IC50 was less than 0.1 µM on BRD4 BD1; less than 0.05 µM on BRD4 BD2; 0.1 to 0.5 µM with MV4-11 cells (MV4-11, 72 h).
In the case of `CC(=O)N1c2ccc(-c3cnn(C[C@@H]4CCNC4)c3)cc2N(C(=O)OC(C)C)C[C@@H]1C` [Example I-687], the IC50 is 0.1 to 1 µM at BRD4 BD1; less than 0.05 µM at BRD4 BD2; 0.1 to 0.5 µM in the test with MV4-11 cells (MV4-11, 72 h).
Consider `CC(=O)N1c2ccc(-c3cnn(C4CCNCC4)c3)cc2N(C(=O)Oc2ccc(F)cc2)C[C@@H]1C` [Example I-1149], for which the IC50 on BRD4 BD1 was 0.1 to 1 µM; on BRD4 BD2, 0.05 to 0.5 µM; in the test with MV4-11 cells, less than 0.1 µM.
Consider `CC(=O)N1c2ccc(-c3ccc(C4(O)COC4)cc3)cc2N(C(=O)C2CC2)C[C@@H]1C` [Example I-443], for which the IC50 is 0.1 to 1 µM at BRD4 BD1; less than 0.05 µM at BRD4 BD2; 0.1 to 0.5 µM with MV4-11 cells (MV4-11, 72 h).
The corresponding values for `CCCS(=O)(=O)c1ccc(-c2ccc3c(c2)N(C(=O)OCC)C[C@H](C)N3C(C)=O)cc1` [Example I-1072] are 0.1 to 1 µM, 0.05 to 0.5 µM and 0.1 to 0.5 µM.
On the same counts, the results for `COC(=O)N1c2ccc(-c3ccc(C(=O)N4CC[C@H](O)C4)cc3)cc2N(C(=O)OC(C)C)C[C@@H]1C` [Example I-575] are 0.1 to 1 µM, 0.05 to 0.5 µM and 0.1 to 0.5 µM.
For `CC(=O)N1c2ccc(-c3cnn(C4COC4)c3)cc2N(C(=O)OC(CF)CF)C[C@@H]1C` [Example I-72, (S)-1,3-difluoropropan-2-yl 4-acetyl-3-methyl-7-(1-(oxetan-3-yl)-1H-pyrazol-4-yl)-3,4-dihydroquinoxaline-1(2H)-carboxylate], the IC50 was 0.1 to 1 µM on BRD4 BD1; less than 0.05 µM at BRD4 BD2; 0.1 to 0.5 µM with MV4-11 cells (MV4-11, 72 h).
On the same counts, the results for `CC(=O)N1c2ccc(-c3cnn(C4CC4)c3)cc2N(c2nn(C)c3cnccc23)C[C@@H]1C` [Example I-185, 1-[(2S)-6-(1-cyclopropyl-1H-pyrazol-4-yl)-2-methyl-4-{1-methyl-1H-pyrazolo[3,4-c]pyridin-3-yl}-1,2,3,4-tetrahydroquinoxalin-1-yl]ethan-1-one] are 0.1 to 1 µM, less than 0.05 µM and less than 0.1 µM.
For the compound `CC(=O)N1c2ccc(-c3cccc(S(C)(=O)=O)c3)cc2N(C(=O)OC(C)C)C[C@@H]1C` [Example I-1053], the IC50 on BRD4 BD1 was in the range of 1 to 10 µM; at BRD4 BD2, 0.05 to 0.5 µM; in the test on MV4-11 cells (MV4-11, 72 h) it was 0.1 to 0.5 µM.
On to `CC(=O)N1c2ccc(-c3cnn(C4CCCS(=O)(=O)C4)c3)cc2N(C(=O)OC2CCC2)C[C@@H]1C` (stereo partly drawn) [Example I-158, cyclobutyl (3S)-4-acetyl-7-[1-(1,1-dioxo-16-thian-3-yl)-1H-pyrazol-4-yl]-3-methyl-1,2,3,4-tetrahydroquinoxaline-1-carboxylate], for which the IC50 is 0.1 to 1 µM at BRD4 BD1; less than 0.05 µM on BRD4 BD2; 0.1 to 0.5 µM in the test with MV4-11 cells (MV4-11, 72 h).
In the case of `CC(=O)N1c2ccc(-c3ccc(S(C)(=O)=O)cc3)cc2N(C(=O)OC2CCCCC2)C[C@@H]1C` [Example I-238], the IC50 at BRD4 BD1 was 0.1 to 1 µM; on BRD4 BD2, less than 0.05 µM; in the test on MV4-11 cells (MV4-11, 72 h), 0.1 to 0.5 µM.
On the same counts, the results for `CC(=O)N1c2ccc(-c3ccc(CN4CCCS4(=O)=O)cc3)cc2N(C(=O)c2ccco2)C[C@@H]1C` [Example I-427] are 0.1 to 1 µM, less than 0.05 µM and 0.1 to 0.5 µM.
On the same counts, the results for `CC(=O)N1c2ccc(-c3ccc(S(=O)(=O)N(C)C)c(C)c3)cc2N(C(=O)OC(C)C)C[C@@H]1C` [Example I-1299] are 0.1 to 1 µM, 0.05 to 0.5 µM and 0.1 to 0.5 µM.
With `CC(=O)N1c2ccc(-c3cnn(C4CNC4)c3)cc2N(C(=O)Oc2ccc(F)cc2)C[C@@H]1C` [Example I-1150], the IC50 at BRD4 BD1 was 0.1 to 1 µM; on BRD4 BD2 it was less than 0.05 µM; in the test with MV4-11 cells, 0.1 to 0.5 µM.
Consider `CC(=O)N1c2ccc(-c3ccc(N4CCOCC4)cc3)cc2N(C(=O)OC2CCCCC2)C[C@@H]1C` [Example I-1229], for which the IC50 at BRD4 BD1 was 0.1 to 1 µM; at BRD4 BD2, 0.05 to 0.5 µM; in the test on MV4-11 cells (MV4-11, 72 h) it was 0.1 to 0.5 µM.
The corresponding values for `CC(=O)N1c2ccc(-c3ccc(C(=O)N[C@H]4C[C@H]5CC[C@@H](C4)N5)cc3)cc2N(C(=O)OC(C)C)C[C@@H]1C` [Example I-594] are 0.1 to 1 µM, 0.05 to 0.5 µM and 0.1 to 0.5 µM.
The corresponding values for `C[C@H]1CN(C(=O)OC2CCOCC2)c2cc(-c3cnn(C4CC4)c3)ccc2N1C(=O)C1CC1` [Example I-1001] are 0.1 to 1 µM, 0.05 to 0.5 µM and 0.1 to 0.5 µM.
On the same counts, the results for `COc1ccc(OC(=O)N2C[C@H](C)N(C(C)=O)c3ccc(-c4cnn(C5COC5)c4)cc32)cc1` [Example I-87, (S)-4-methoxyphenyl 4-acetyl-3-methyl-7-(1-(oxetan-3-yl)-1H-pyrazol-4-yl)-3,4-dihydroquinoxaline-1(2H)-carboxylate] are less than 0.1 µM, less than 0.05 µM and less than 0.1 µM.
Regarding `CC(=O)N1c2ccc(-c3cccc(NS(=O)(=O)N(C)C)c3)cc2N(C(=O)C2CCC2)C[C@@H]1C` [Example I-1144], the IC50 was in the range of 1 to 10 µM at BRD4 BD1; 0.05 to 0.5 µM on BRD4 BD2; 0.1 to 0.5 µM in the test on MV4-11 cells (MV4-11, 72 h).
The corresponding values for `COC(=O)N1c2ccc(-c3cnn(CCN4CCCS4(=O)=O)c3)cc2N(C(=O)OC(C)C)C[C@@H]1C` [Example I-626] are 0.1 to 1 µM, 0.05 to 0.5 µM and greater than 0.5 µM.
Take `CC(=O)N1c2ccc(-c3cnn(C4CC4)c3)cc2N(C(=O)Oc2ccc(C)nc2C)C[C@@H]1C` [Example I-1190]: the IC50 on BRD4 BD1 is 0.1 to 1 µM; on BRD4 BD2, 0.05 to 0.5 µM; with MV4-11 cells (MV4-11, 72 h) it was greater than 0.5 µM.
On the same counts, the results for `COc1ccc(C)cc1OC(=O)N1C[C@H](C)N(C(C)=O)c2ccc(-c3cnn(C4CC4)c3)cc21` [Example I-508] are 0.1 to 1 µM, 0.05 to 0.5 µM and 0.1 to 0.5 µM.
The corresponding values for `CC(=O)N1c2ccc(-c3ccc(S(N)(=O)=O)cc3)cc2N(C(=O)C2CC2)C[C@@H]1C` [Example I-1066] are 1 to 10 µM, 0.05 to 0.5 µM and greater than 0.5 µM.
Regarding `CC(=O)N1c2ccc(-c3cnn(C[C@H]4CCNC4)c3)cc2N(C(=O)OC(C)C)C[C@@H]1C` [Example I-688], the IC50 at BRD4 BD1 lay in the range of 0.1 to 1 µM; at BRD4 BD2, 0.05 to 0.5 µM; in the test with MV4-11 cells (MV4-11, 72 h), 0.1 to 0.5 µM.
For `CC(=O)N1c2ccc(-c3cnn(CCC#N)c3)cc2N(C(=O)C2CC2)C[C@@H]1C` [Example I-650], the IC50 at BRD4 BD1 lay within 0.1 to 1 µM; on BRD4 BD2, 0.05 to 0.5 µM; in the test on MV4-11 cells (MV4-11, 72 h), 0.1 to 0.5 µM.
The corresponding values for `CC(=O)N1c2ccc(-c3cnn(C4CC4)c3)cc2N(C(=O)Oc2cc(F)ccc2F)C[C@@H]1C` [Example I-503] are 0.1 to 1 µM, 0.05 to 0.5 µM and 0.1 to 0.5 µM.
Turning to `CC(=O)N1c2ccc(-c3cccc(NS(C)(=O)=O)c3)cc2N(C(=O)OC2CCOCC2)C[C@@H]1C` [Example I-1222], the IC50 at BRD4 BD1 lay within 0.1 to 1 µM; on BRD4 BD2, 0.05 to 0.5 µM; in the test with MV4-11 cells (MV4-11, 72 h), 0.1 to 0.5 µM.
On the same counts, the results for `CC(=O)N1c2ccc(-c3ccc(C(=O)N4CC[C@@H](O)C4)cc3)cc2N(C(=O)OC(C)C)C[C@@H]1C` [Example I-581] are 0.1 to 1 µM, 0.05 to 0.5 µM and 0.1 to 0.5 µM.
On the same counts, the results for `COC(=O)N1c2ccc(-c3cnn(C4CC4)c3)cc2N(C(=O)OC2CCOCC2)C[C@@H]1C` [Example I-1002] are 0.1 to 1 µM, 0.05 to 0.5 µM and 0.1 to 0.5 µM.
The corresponding values for `CC(=O)N1c2ccc(-c3cnn(CCF)c3)cc2N(C(=O)C2CC2)C[C@@H]1C` [Example I-671] are 0.1 to 1 µM, 0.05 to 0.5 µM and 0.1 to 0.5 µM.
Consider `CC(=O)N1c2ccc(-c3ccc(N4CCOCC4)nc3)cc2N(C(=O)c2ccco2)C[C@@H]1C` [Example I-800], for which the IC50 on BRD4 BD1 is 1 to 10 µM; on BRD4 BD2, 0.05 to 0.5 µM; in the test with MV4-11 cells (MV4-11, 72 h), 0.1 to 0.5 µM.
On to `CC(=O)N[C@H]1CCN(C(=O)c2ccc(-c3ccc4c(c3)N(C(=O)OC(C)C)C[C@H](C)N4C(=O)C3CC3)cc2)C1` [Example I-570], for which the IC50 lay within 0.1 to 1 µM on BRD4 BD1; 0.05 to 0.5 µM on BRD4 BD2; 0.1 to 0.5 µM in the test on MV4-11 cells (MV4-11, 72 h).
